How the values were obtained:
[1] = Single-molecule fluorescence tracking (HILO) of labeled molecules in their droplets; assay type: physicochemical; details: Alexa488-labeled peptide 10–100 pM in 0.9 mM non-labeled peptide droplets; 25 mM HEPES, 0.5 mM EDTA, 45 mM NaCl, 150 mg/mL dextran, pH 7.0; linear fit of MSD (4D slope)
Method: We quantitatively characterized the liquid droplet properties of the four designed peptides and compared them with those of p53. We measured the fusion of the designed peptide droplets in the solution used for p53 droplets (Supplementary Fig. S4). In the presence of 45 mM NaCl and 150 mg/mL dextran, the fusion of droplets for the four designed peptides was observed within 0.2 s, which was much faster than that for p53 (3.7 min)[8]. This gap in the fusion period implies different intrinsic dynamic properties. We measured the movement of Alexa488-labeled peptides within non-labeled peptide droplets using single-molecule fluorescence microscopy with a highly inclined and laminated optical sheet (HILO) illumination[37],[41] (Fig. 3A). […]
Single-molecule measurements were performed following the method described in our previous studies[37],[41]. An inverted fluorescence microscope (IX-73; Olympus) with a total internal reflection fluorescence unit (IX3RFAEVAW; Olympus) was used[52],[53]. […] The fluorescence collected via the objective lens was detected using an EM-CCD camera (iXon Ultra 888, Andor). […] Images were recorded at intervals of 15–154 ms after reducing the number of observable molecules in the droplets by photobleaching within one minute. […]

[2] = system: p53 monomer (L344P) mutant; experiment: Recruitment (enrichment index) of p53 monomer into designed peptide droplets; parameters: species or system human; details: (GGGS)3-linker versus GSGS-linker droplets; no salt, pH 7.0
Source text: (§1) We prepared p53 tetramer, dimer, and monomer mutants, as described previously[8],[37],[50]. For the p53 tetramer, a thermostable and cysteine-modified human p53 mutant (C124A, C135V, C141V, W146Y, C182S, V203A, R209P, C229Y, H233Y, Y234F, N235K, Y236F, T253V, N268D, C275A, C277A, and K292C) was used[50]. The dimer and monomer mutants of p53 corresponded to L344A and L344P of the tetramer sequence, respectively[8],[37]. These p53 mutants were expressed with a glutathione S-transferase (GST) tag in E. coli and purified after cleavage of the GST tag, as described previously[50],[51]. The oligomeric state of p53 mutants was confirmed using a gel filtration column (Superdex 200; GE Healthcare). p53 mutants were labeled with Atto488 (ATTO-TEC) or Alexa488 (Thermo Fisher) using maleimide chemistry and then purified using a heparin column (GE Healthcare). We prepared Alexa488-labeled FUS-MBP as described previously[37],[39].
(§2) Recruitment evaluations were performed following the method described in our previous studies[37],[41]. Solutions containing 0.9–1.8 mM designed peptides, 0.1 µM Alexa488-labeled p53 mutants or Alexa488, 25 mM HEPES, 0.5 mM EDTA, and 1 mM DTT at pH 7.0 were used. The solutions were then incubated at 22 °C for five minutes. The aforementioned microscope was used with HILO illumination. To prevent photo-bleaching of the fluorescent samples, we used a laser power of 0.15 mW. The images were acquired at 22 °C. Using the ImageJ software, we calculated the EI values of the individual droplets as follows:2 EI=Idroplet/Isolution, where Idroplet and Isolution represent the average fluorescence intensities of the individual droplets and solutions near the droplets with background substitution, respectively.

[3] = system: p53 tetramer; experiment: Recruitment (enrichment index) of p53 tetramer into designed peptide droplets; parameters: species or system human; details: (GGGS)3-linker versus GSGS-linker droplets; no salt, pH 7.0
Source text: as §1, §2

## RRRVVQRRRRGGGSGGGSGGGSDDDASQEDDD [DPp53N-(GGGS)3-DPp53C1]
[1]
  Average diffusion coefficient (D) in own droplets: 2.03 ± 0.06 μm^2/s
[2]
  Decrease of average EI of p53 monomer mutant compared to the GSGS-linker peptide: 1.2 fold
[3]
  Increase of average EI of p53 tetramer compared to the GSGS-linker peptide: 1.8 fold
